This assay relates to BDF1 mice, Adenocarcinoma 755 s.c., tumor weight T/C. Briefly: NCI In Vivo Anticancer Drug Screen. Data for tumor model Adenocarcinoma 755 (subcutaneous) in B6D2F1 (BDF1) mice. Particulars: endpoint: mean tumor weight, higher = larger tumour. In short, it runs like this: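 Transplantable tumor implanted; mice dosed with compound or vehicle; survival or tumor size recorded; ratio of treated to vehicle control reported.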

[1] abbreviates: dose: 15.0 mg/kg/injection, schedule: Q01DX011 (ip), vehicle: methylcellulose (MC).
[2] abbreviates: dose: 62.0 mg/kg/injection, schedule: Q01DX011 (ip), vehicle: methylcellulose (MC).
Setting [3] is: dose: 125.0 mg/kg/injection, schedule: Q01DX011 (ip), vehicle: methylcellulose (MC).
Setting [4] is: dose: 25.0 mg/kg/injection, schedule: Q01DX011 (ip), vehicle: other.
[5] abbreviates: dose: 100.0 mg/kg/injection, schedule: Q01DX011 (ip), vehicle: carboxymethylcellulose (CMC).

The T/C is the result in the treated group divided by that in the control group, in per cent.

Where “and” joins values, the source holds several entries; their conditions need not be identical. Identical values can stand only once.

Regarding `O=C1Nc2cc3c(c4cccc1c24)CCCC3`, the T/C is 111 % of control (dose: 1.25 mg/kg/injection, schedule: Q01DX011 (ip), vehicle: carboxymethylcellulose (CMC)) and 95 % of control (dose: 5.0 mg/kg/injection, schedule: Q01DX011 (ip), vehicle: carboxymethylcellulose (CMC)).

For `N#Cc1ccc(Nc2cc(Cl)nc(N)n2)cc1`, the T/C reads like this: under setting [1], 89 % of control; (dose: 31.0 mg/kg/injection, schedule: Q01DX011 (ip), vehicle: methylcellulose (MC)) 87 % of control; under setting [2], 50 % of control; under setting [3], 97 % of control; (dose: 250.0 mg/kg/injection, schedule: Q01DX011 (ip), vehicle: methylcellulose (MC)) 65 % of control.

In the case of `CN(C)c1nc(N(C)C)nc(N(C)C)n1`, the T/C was 121 % of control (dose: 4.75 mg/kg/injection, schedule: Q01DX011 (ip), vehicle: other); 67 % of control (dose: 9.5 mg/kg/injection, schedule: Q01DX011 (ip), vehicle: other); 95 % of control (dose: 10.88 mg/kg/injection, schedule: Q01DX011 (ip), vehicle: other); 95 % of control (dose: 10.9 mg/kg/injection, schedule: Q01DX011 (ip), vehicle: other); 108 % of control (dose: 11.25 mg/kg/injection, schedule: Q01DX011 (iv), vehicle: other); 87 % of control (dose: 13.85 mg/kg/injection, schedule: Q01DX011 (ip), vehicle: carboxymethylcellulose (CMC)). The T/C runs as follows: (dose: 13.85 mg/kg/injection, schedule: Q01DX011 (ip), vehicle: other) 104 % of control; (dose: 14.13 mg/kg/injection, schedule: Q01DX011 (ip), vehicle: other) 117 % of control; (dose: 15.6 mg/kg/injection, schedule: Q01DX011 (oral), vehicle: other) 77 % of control; (dose: 15.6 mg/kg/injection, schedule: Q01DX011 (oral), vehicle: saline) 88 % of control; (dose: 19.0 mg/kg/injection, schedule: Q01DX011 (ip), vehicle: other) 53 % of control; (dose: 21.75 mg/kg/injection, schedule: Q01DX011 (ip), vehicle: other) 55 % of control and 73 % of control. Besides, the T/C was 67 % of control (dose: 22.5 mg/kg/injection, schedule: Q01DX011 (iv), vehicle: other); 59 % of control under setting [4]; 161 % of control (dose: 27.7 mg/kg/injection, schedule: Q01DX011 (ip), vehicle: carboxymethylcellulose (CMC)); 56 % of control (dose: 27.7 mg/kg/injection, schedule: Q01DX011 (ip), vehicle: other); 53 % of control (dose: 30.37 mg/kg/injection, schedule: Q01DX011 (ip), vehicle: carboxymethylcellulose (CMC)); 118 % of control (dose: 31.25 mg/kg/injection, schedule: Q01DX011 (ip), vehicle: carboxymethylcellulose (CMC)). Also, the T/C was 91 % of control (dose: 31.25 mg/kg/injection, schedule: Q01DX011 (ip), vehicle: methylcellulose (MC)); 80 % of control and 85 % of control (dose: 31.25 mg/kg/injection, schedule: Q01DX011 (iv), vehicle: other); 101 % of control (dose: 31.3 mg/kg/injection, schedule: Q01DX011 (oral), vehicle: other); 75 % of control (dose: 31.3 mg/kg/injection, schedule: Q01DX011 (oral), vehicle: saline); 50 % of control (dose: 34.8 mg/kg/injection, schedule: Q01DX011 (ip), vehicle: carboxymethylcellulose (CMC)); 47 % of control (dose: 43.5 mg/kg/injection, schedule: Q01DX011 (ip), vehicle: carboxymethylcellulose (CMC)). Moreover, the T/C (dose: 43.5 mg/kg/injection, schedule: Q01DX011 (ip), vehicle: other) was 109 % of control; the T/C (dose: 45.0 mg/kg/injection, schedule: Q01DX011 (iv), vehicle: other) was 89 % of control; the T/C (dose: 55.4 mg/kg/injection, schedule: Q01DX011 (ip), vehicle: carboxymethylcellulose (CMC)) was 96 % of control; the T/C (dose: 55.4 mg/kg/injection, schedule: Q01DX011 (ip), vehicle: other) was 45 % of control; the T/C (dose: 56.5 mg/kg/injection, schedule: Q01DX011 (ip), vehicle: other) was 54 % of control; the T/C (dose: 58.0 mg/kg/injection, schedule: Q01DX011 (ip), vehicle: carboxymethylcellulose (CMC)) is 29 % of control. The T/C is 78 % of control (dose: 60.75 mg/kg/injection, schedule: Q01DX011 (ip), vehicle: carboxymethylcellulose (CMC)); 88 % of control (dose: 62.5 mg/kg/injection, schedule: Q01DX011 (ip), vehicle: carboxymethylcellulose (CMC)); 82 % of control (dose: 62.5 mg/kg/injection, schedule: Q01DX011 (ip), vehicle: methylcellulose (MC)); 51 % of control and 57 % of control (dose: 62.5 mg/kg/injection, schedule: Q01DX011 (iv), vehicle: other); 74 % of control (dose: 62.5 mg/kg/injection, schedule: Q01DX011 (oral), vehicle: other); 105 % of control (dose: 62.5 mg/kg/injection, schedule: Q01DX011 (oral), vehicle: saline). For the same compound, the T/C is 11 % of control (dose: 87.0 mg/kg/injection, schedule: Q01DX011 (ip), vehicle: carboxymethylcellulose (CMC)); 14 % of control (dose: 87.0 mg/kg/injection, schedule: Q01DX011 (ip), vehicle: other); 48 % of control (dose: 121.5 mg/kg/injection, schedule: Q01DX011 (ip), vehicle: carboxymethylcellulose (CMC)); 43 % of control (dose: 125.0 mg/kg/injection, schedule: Q01DX011 (ip), vehicle: carboxymethylcellulose (CMC)); 34 % of control under setting [3]; 8 % of control (dose: 125.0 mg/kg/injection, schedule: Q01DX011 (iv), vehicle: other). The T/C runs as follows: (dose: 125.0 mg/kg/injection, schedule: Q01DX011 (oral), vehicle: other) 54 % of control; (dose: 125.0 mg/kg/injection, schedule: Q01DX011 (oral), vehicle: saline) 106 % of control; (dose: 250.0 mg/kg/injection, schedule: Q01DX011 (ip), vehicle: carboxymethylcellulose (CMC)) 36 % of control; (dose: 250.0 mg/kg/injection, schedule: Q01DX011 (oral), vehicle: saline) 40 % of control.

Take `CSc1nc(Cl)c2cc[nH]c2n1`: the T/C runs as follows: (dose: 30.0 mg/kg/injection, schedule: Q01DX011 (ip), vehicle: carboxymethylcellulose (CMC)) 89 % of control; (dose: 120.0 mg/kg/injection, schedule: Q01DX011 (ip), vehicle: carboxymethylcellulose (CMC)) 72 % of control; (dose: 240.0 mg/kg/injection, schedule: Q01DX011 (ip), vehicle: carboxymethylcellulose (CMC)) 79 % of control.

Take `O=C1C=C(c2ccccc2)C(=O)C=C1c1ccccc1`: the T/C runs as follows: (dose: 12.5 mg/kg/injection, schedule: Q01DX011 (ip), vehicle: other) 72 % of control; under setting [4], 48 % of control.

Turning to `CC(C)COC(=O)C1(N)CCCC1`, the T/C is 98 % of control (dose: 25.0 mg/kg/injection, schedule: Q01DX011 (ip), vehicle: carboxymethylcellulose (CMC)); 33 % of control (dose: 50.0 mg/kg/injection, schedule: Q01DX011 (ip), vehicle: carboxymethylcellulose (CMC)); 12 % of control under setting [5].

For `Cc1ccc(C(=O)OCC2OC(n3cnc4c(=S)nc(N)[nH]c43)C(OC(=O)c3ccc(C)cc3)C2OC(=O)c2ccc(C)cc2)cc1` (stereo not drawn), the T/C by setting is: under setting [5], 81 % of control; (dose: 200.0 mg/kg/injection, schedule: Q01DX011 (ip), vehicle: carboxymethylcellulose (CMC)) 4 % of control and 12 % of control.

Take `CC(=O)OCCOc1ccc(C(C)(C)C)cc1`: the T/C is 57 % of control (dose: 57.0 mg/kg/injection, schedule: Q01DX011 (ip), vehicle: methylcellulose (MC)); 122 % of control (dose: 113.0 mg/kg/injection, schedule: Q01DX011 (ip), vehicle: carboxymethylcellulose (CMC)); 83 % of control (dose: 113.0 mg/kg/injection, schedule: Q01DX011 (ip), vehicle: methylcellulose (MC)); 171 % of control (dose: 225.0 mg/kg/injection, schedule: Q01DX011 (ip), vehicle: carboxymethylcellulose (CMC)); 47 % of control (dose: 225.0 mg/kg/injection, schedule: Q01DX011 (ip), vehicle: methylcellulose (MC)); 107 % of control (dose: 450.0 mg/kg/injection, schedule: Q01DX011 (ip), vehicle: carboxymethylcellulose (CMC)). Moreover, the T/C is 70 % of control (dose: 500.0 mg/kg/injection, schedule: Q01DX011 (ip), vehicle: carboxymethylcellulose (CMC)) and 65 % of control (dose: 600.0 mg/kg/injection, schedule: Q01DX011 (ip), vehicle: carboxymethylcellulose (CMC)).

Regarding `Nc1nc(Nc2ccccc2Cl)cc(=O)[nH]1`, the T/C by setting is: under setting [1], 119 % of control; under setting [2], 95 % of control.

The values above are taken from PubChem BioAssay AID180 (DTP/NCI, 2004).
